Assays:
[1] = test system: SNL-induced mechanical hyperalgesia; experiment: SNL-induced mechanical hyperalgesia, paw withdrawal threshold; type: in vivo, rat; conditions: SNL rats, ZL006-05 60 mg/kg/d, i.g., ×11 d
[2] = test system: CFA-induced inflammatory pain; experiment: CFA-induced inflammatory pain, paw withdrawal threshold; type: in vivo; conditions: mice, ZL006-05 60 mg/kg, i.g., given 24 h after CFA injection
Description: For mice, the threshold for 50% PWT response to mechanical stimulus was quantified by assessing the paw withdrawal threshold using von Frey filaments (Touch-Test TM Sensory Evaluator, North coast Medical, Inc.). Mice were placed individually in a plastic cage (4.5 × 5 × 11 cm) with a wire mesh bottom which allowed full access to the paws. Behavioral accommodation was allowed for 20-30 min until cage exploration and major grooming activities ceased. Mechanical threshold was measured by applying a von Frey filament to the ventral surface of the right hind paw until a positive sign of pain behavior was elicited. The paradigm for assessing the threshold was as follows. Von Frey filaments with logarithmically incremental stiffness (0.02-2 g) were applied serially to the paw by the up-down method. […]
(A) Time course of SNL-induced thermal hyperalgesia after treating with ZL006-05 (60 mg/kg, i.g.) in mice. Paw withdrawal latency response to thermal stimulation was detected at 0, 1, 2, 4, 6, 8, 10, 12 and 24 h after drug administration. ( B) Areas under the curve of paw withdrawal latency 0-24 h after treatment calculated from ( A) (F (1,16) = 43.07, ***p < 0.001, two-tailed t-test, n = 9). […] (E) Areas under the curve of paw withdrawal latency 0-24 h after treatment calculated from (D) (F (1,18) = 71.73, ***p <0.001, two-tailed t-test, n = 10). […]

[3] = test system: basic pain threshold under normal conditions; experiment: Mechanical nociceptive thresholds in normal rats; type: in vivo, rat; conditions: ZL006-05 90 mg/kg/d, i.g., × 11 d, 2 h after administration
Description: For rats, the threshold for 50% paw withdrawal (50% PWT) response to mechanical stimulus was assessed through a dynamic plantar apparatus (Ugo Basile, Italy). The 50% PWT refers to that the probability of paw withdrawal response to repeated mechanical stimulus is 50%. Rats were placed individually in a plastic cage (17 × 15 × 15 cm) with a wire mesh bottom which allowed full access to the paws. Behavioral accommodation was allowed for 15-20 min until cage exploration and major grooming activities ceased. A maximal cut-off of 50g/50s was set to prevent tissue damage. To record the PWT in response to mechanical stimulus, each rat was measured five times with a 5-min interval, and the mean value was recorded after excluding maximal and minimum values. The experimental procedures were performed in a double-blind manner.

motor coordination = experiment: Rotarod test, motor coordination; type: in vivo; conditions: rats, 30 min after injection, ZL006-05 60 mg/kg, i.v., diazepam 0.5 mg/kg
[4] = Identification of metabolites of ZL006-05 in plasma (UPLC-UV/Q-TOF MS); type: in vivo; conditions: rats
Description: ZL006-05 was given to rats by intravenous injection (i.v., 6.0 mg/kg) and oral administration (i.g., 90 mg/kg) respectively. Plasma samples were collected at pre-dose and 0.25, 0.5, 2 and 4 h for i.v. and 0.5, 1, 2 and 4 h for i.g after a single dose administration. Pre-dose plasma samples were used as control blank. After vortex and centrifugation, supernatant was removed and dried out by nitrogen blowing instrument at 40 °C and then re-dissolved with 100 μL water/ACN (50/50, v/v). The resulting samples were injected and analyzed by UPLC-UV/Q-TOF MS. Metabolites were separated with ACQUITY UPLC HSS T3 C18 column (2.1 × 100 mm I.D., 1.7 µm I.D.) with column temperature at 45 °C and flow rate at 0.4 mL/min, detected by UV (200-600 nm). Masslynx V4.1 of Waters was used for data acquiring, MetaboLynx XS with Masslynx V4.1 was used for data analysis.
Supplementary Figure 3. Proposed metabolic pathways of ZL006-05 in rats. […]
of ZL006-05, including M2-2 (glucuronide conjunction), M3-2 (Mono-oxidation & […]
parent drug were found in plasma after oral administration of ZL006-05, including M1 (Oxidation by de-H2), M2-1 and M2-2 (glucuronide conjunction), M3-1 and M3-2 (Mono-oxidation & glucuronide conjunction). Based on the chromatogram of UPLC- […]
oral dosing, the proposed metabolic pathways of ZL006-05 in blood were summarized. i.v.: intravenous injection; i.g.: oral administration.
(1 picture or pasted object on this page, not shown here)

For `CC1(C)C2CCC1(C)C(OC(=O)c1ccc(NCc3cc(Cl)cc(Cl)c3O)cc1O)C2` (centres unmarked) [ZL006-05], the “Analgesic tolerance, mechanical hyperalgesia” value [1] was “did not produce analgesic tolerance”, the “Effect on CFA-induced inflammatory pain” value [2] was “reduced” and the “Basic mechanical nociceptive threshold” value [3] was “did not change the basic threshold”. The “Motor coordination, time spent on the accelerating rotarod” value (motor coordination) was “had no effect”, the “Metabolites found in plasma” value ([4]; after intravenous injection: M2-2, M3-2, M4) was “Three metabolites except parent drug” and the “Main metabolite in plasma (UPLC-UV)” value ([4]; after iv dosing, 6.0 mg/kg) was “parent drug (M0)”. The “Metabolites found in plasma” value ([4]; after oral administration: M1, M2-1, M2-2, M3-1, M3-2) was “five metabolites” and the “Main metabolite in plasma (UPLC-UV)” value ([4]; after oral dosing, 90 mg/kg) was “parent drug (M0) and glucuronide conjunction (M2-2)”.

Source: article PMC8058733, “A pain killer without analgesic tolerance designed by co-targeting PSD-95-nNOS interaction and α2-containning GABAARs” (Theranostics, 2021)
